From PubChem BioAssay (NCI)
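Values below derive from 48-hour exposures of cells grown in 96-well plates, with endpoints linearly interpolated between the two concentrations bracketing the appropriate inhibition level. GI50 marks 50% less growth. TGI denotes the concentration required for complete inhibition of growth.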

Columns and labels:
Assay in all cases: inhibition of tumour cell growth, NCI panel, 48 h
UACC-257 melanoma = test system: UACC-257 melanoma
SK-OV-3 ovarian = test system: SK-OV-3 ovarian
HOP-62 NSCLC = test system: HOP-62 NSCLC
CCRF-CEM leukemia = test system: CCRF-CEM leukemia
NCI/ADR-RES ovarian = test system: NCI/ADR-RES ovarian
HL-60(TB) leukemia = test system: HL-60(TB) leukemia
HCT-15 colon = test system: HCT-15 colon
CAKI-1 renal = test system: CAKI-1 renal
RPMI-8226 leukemia = test system: RPMI-8226 leukemia
SNB-75 CNS = test system: SNB-75 CNS
RXF 393 renal = test system: RXF 393 renal
SNB-19 CNS = test system: SNB-19 CNS
COLO 205 colon = test system: COLO 205 colon
HS 578T breast = test system: HS 578T breast
LOX IMVI melanoma = test system: LOX IMVI melanoma
U251 CNS = test system: U251 CNS
DU-145 prostate = test system: DU-145 prostate
MALME-3M melanoma = test system: MALME-3M melanoma
SK-MEL-2 melanoma = test system: SK-MEL-2 melanoma
MDA-MB-435 = test system: MDA-MB-435
M14 melanoma = test system: M14 melanoma
OVCAR-8 ovarian = test system: OVCAR-8 ovarian
HT29 colon = test system: HT29 colon
MCF7 breast = test system: MCF7 breast
OVCAR-4 ovarian = test system: OVCAR-4 ovarian
NCI-H23 lung = test system: NCI-H23 lung
IGROV1 ovarian = test system: IGROV1 ovarian
ACHN renal = test system: ACHN renal
SN12C renal = test system: SN12C renal
EKVX NSCLC = test system: EKVX NSCLC
KM12 colon = test system: KM12 colon
NCI-H226 lung = test system: NCI-H226 lung
BT-549 breast = test system: BT-549 breast
NCI-H460 lung = test system: NCI-H460 lung
MDA-MB-231 breast = test system: MDA-MB-231 breast
K-562 leukemia = test system: K-562 leukemia
UACC-62 melanoma = test system: UACC-62 melanoma
SR leukemia = test system: SR leukemia
HCC-2998 colon = test system: HCC-2998 colon
OVCAR-3 ovarian = test system: OVCAR-3 ovarian
SK-MEL-5 melanoma = test system: SK-MEL-5 melanoma
SF-539 CNS = test system: SF-539 CNS
SF-268 CNS = test system: SF-268 CNS
A549 NSCLC = test system: A549 NSCLC
UO-31 renal = test system: UO-31 renal
PC-3 prostate = test system: PC-3 prostate
A498 renal = test system: A498 renal
OVCAR-5 ovarian = test system: OVCAR-5 ovarian
SW-620 colon = test system: SW-620 colon
TK-10 renal = test system: TK-10 renal
SF-295 CNS = test system: SF-295 CNS
HCT-116 colon = test system: HCT-116 colon
HOP-92 NSCLC = test system: HOP-92 NSCLC
T-47D breast = test system: T-47D breast
SK-MEL-28 melanoma = test system: SK-MEL-28 melanoma
MOLT-4 leukemia = test system: MOLT-4 leukemia
786-0 renal = test system: 786-0 renal

Q: Which GI50 (UACC-257 melanoma) does the source give for `C=C(C)[C@@H]1CC[C@]2(COS(C)(=O)=O)CC[C@]3(C)[C@H](CC[C@@H]4[C@@]5(C)CCCNC(C)(C)[C@@H]5CC[C@]43C)[C@@H]12` here?
A: 1.99 µM

Q: And the TGI (UACC-257 melanoma)?
A: 4.27 µM

Q: What about the GI50 (SK-OV-3 ovarian) of the same compound?
A: 6.44 µM

Q: And the TGI (SK-OV-3 ovarian)?
A: 19.6 µM

Q: And the GI50 (HOP-62 NSCLC)?
A: 1.67 µM

Q: What about the TGI (HOP-62 NSCLC) of the same compound?
A: 3.21 µM

Q: And the GI50 (CCRF-CEM leukemia)?
A: 1.76 µM

Q: What about the TGI (CCRF-CEM leukemia) of the same compound?
A: 4.42 µM

Q: What about the GI50 (NCI/ADR-RES ovarian) of the same compound?
A: 1.72 µM

Q: And the TGI (NCI/ADR-RES ovarian)?
A: 3.27 µM

Q: What about the GI50 (HL-60(TB) leukemia) of the same compound?
A: 1.62 µM

Q: What about the TGI (HL-60(TB) leukemia) of the same compound?
A: 3.39 µM

Q: What about the GI50 (HCT-15 colon) of the same compound?
A: 1.57 µM

Q: What about the TGI (HCT-15 colon) of the same compound?
A: 3.06 µM

Q: What about the GI50 (CAKI-1 renal) of the same compound?
A: 1.67 µM

Q: And the TGI (CAKI-1 renal)?
A: 3.19 µM

Q: And the GI50 (RPMI-8226 leukemia)?
A: 2.05 µM

Q: What about the TGI (RPMI-8226 leukemia) of the same compound?
A: 4.62 µM

Q: And the GI50 (SNB-75 CNS)?
A: 1.37 µM

Q: And the TGI (SNB-75 CNS)?
A: 3.08 µM

Q: What about the GI50 (RXF 393 renal) of the same compound?
A: 1.66 µM

Q: And the TGI (RXF 393 renal)?
A: 3.08 µM

Q: And the GI50 (SNB-19 CNS)?
A: 1.75 µM

Q: What about the TGI (SNB-19 CNS) of the same compound?
A: 3.28 µM

Q: And the GI50 (COLO 205 colon)?
A: 1.73 µM

Q: What about the TGI (COLO 205 colon) of the same compound?
A: 3.27 µM

Q: What about the GI50 (HS 578T breast) of the same compound?
A: 1.85 µM

Q: What about the TGI (HS 578T breast) of the same compound?
A: 3.92 µM

Q: What about the GI50 (LOX IMVI melanoma) of the same compound?
A: 1.09 µM

Q: What about the TGI (LOX IMVI melanoma) of the same compound?
A: 2.37 µM

Q: And the GI50 (U251 CNS)?
A: 1.75 µM

Q: What about the TGI (U251 CNS) of the same compound?
A: 3.29 µM

Q: And the GI50 (DU-145 prostate)?
A: 1.81 µM

Q: What about the TGI (DU-145 prostate) of the same compound?
A: 3.29 µM

Q: And the GI50 (MALME-3M melanoma)?
A: 1.77 µM

Q: What about the TGI (MALME-3M melanoma) of the same compound?
A: 3.73 µM

Q: What about the GI50 (SK-MEL-2 melanoma) of the same compound?
A: 1.69 µM

Q: And the TGI (SK-MEL-2 melanoma)?
A: 3.54 µM

Q: And the GI50 (MDA-MB-435)?
A: 1.64 µM

Q: And the TGI (MDA-MB-435)?
A: 3.04 µM

Q: And the GI50 (M14 melanoma)?
A: 1.78 µM

Q: And the TGI (M14 melanoma)?
A: 3.47 µM

Q: And the GI50 (OVCAR-8 ovarian)?
A: 1.93 µM

Q: And the TGI (OVCAR-8 ovarian)?
A: 3.77 µM

Q: And the GI50 (HT29 colon)?
A: 1.83 µM

Q: What about the TGI (HT29 colon) of the same compound?
A: 3.55 µM

Q: What about the GI50 (MCF7 breast) of the same compound?
A: 1.59 µM

Q: And the TGI (MCF7 breast)?
A: 3.5 µM

Q: What about the GI50 (OVCAR-4 ovarian) of the same compound?
A: 1.82 µM

Q: And the TGI (OVCAR-4 ovarian)?
A: 3.65 µM

Q: What about the GI50 (NCI-H23 lung) of the same compound?
A: 1.68 µM

Q: And the TGI (NCI-H23 lung)?
A: 3.34 µM

Q: What about the GI50 (IGROV1 ovarian) of the same compound?
A: 1.77 µM

Q: What about the TGI (IGROV1 ovarian) of the same compound?
A: 3.57 µM

Q: And the GI50 (ACHN renal)?
A: 1.81 µM

Q: And the TGI (ACHN renal)?
A: 3.2 µM

Q: What about the GI50 (SN12C renal) of the same compound?
A: 2.28 µM

Q: What about the TGI (SN12C renal) of the same compound?
A: 5.48 µM

Q: And the GI50 (EKVX NSCLC)?
A: 1.58 µM

Q: What about the TGI (EKVX NSCLC) of the same compound?
A: 3.14 µM

Q: What about the GI50 (KM12 colon) of the same compound?
A: 1.83 µM

Q: And the TGI (KM12 colon)?
A: 3.39 µM

Q: And the GI50 (NCI-H226 lung)?
A: 1.77 µM

Q: What about the TGI (NCI-H226 lung) of the same compound?
A: 3.4 µM

Q: What about the GI50 (BT-549 breast) of the same compound?
A: 1.99 µM

Q: What about the TGI (BT-549 breast) of the same compound?
A: 4.08 µM

Q: What about the GI50 (NCI-H460 lung) of the same compound?
A: 1.8 µM

Q: What about the TGI (NCI-H460 lung) of the same compound?
A: 3.49 µM

Q: And the GI50 (MDA-MB-231 breast)?
A: 1.8 µM

Q: What about the TGI (MDA-MB-231 breast) of the same compound?
A: 3.31 µM

Q: What about the GI50 (K-562 leukemia) of the same compound?
A: 1.16 µM

Q: And the TGI (K-562 leukemia)?
A: 3.06 µM

Q: And the GI50 (UACC-62 melanoma)?
A: 1.72 µM

Q: What about the TGI (UACC-62 melanoma) of the same compound?
A: 3.14 µM

Q: What about the GI50 (SR leukemia) of the same compound?
A: 1.56 µM

Q: What about the TGI (SR leukemia) of the same compound?
A: 3.52 µM

Q: What about the GI50 (HCC-2998 colon) of the same compound?
A: 1.74 µM

Q: What about the TGI (HCC-2998 colon) of the same compound?
A: 3.16 µM

Q: What about the GI50 (OVCAR-3 ovarian) of the same compound?
A: 1.79 µM

Q: What about the TGI (OVCAR-3 ovarian) of the same compound?
A: 3.22 µM

Q: What about the GI50 (SK-MEL-5 melanoma) of the same compound?
A: 1.73 µM

Q: What about the TGI (SK-MEL-5 melanoma) of the same compound?
A: 3.13 µM

Q: What about the GI50 (SF-539 CNS) of the same compound?
A: 1.66 µM

Q: And the TGI (SF-539 CNS)?
A: 3.08 µM

Q: What about the GI50 (SF-268 CNS) of the same compound?
A: 2.61 µM

Q: And the TGI (SF-268 CNS)?
A: 6.49 µM

Q: And the GI50 (A549 NSCLC)?
A: 1.82 µM

Q: What about the TGI (A549 NSCLC) of the same compound?
A: 3.63 µM

Q: And the GI50 (UO-31 renal)?
A: 1.27 µM

Q: What about the TGI (UO-31 renal) of the same compound?
A: 2.63 µM

Q: What about the GI50 (PC-3 prostate) of the same compound?
A: 1.59 µM

Q: What about the TGI (PC-3 prostate) of the same compound?
A: 3.43 µM

Q: What about the GI50 (A498 renal) of the same compound?
A: 1.82 µM

Q: And the TGI (A498 renal)?
A: 6.16 µM

Q: What about the GI50 (OVCAR-5 ovarian) of the same compound?
A: 1.68 µM

Q: What about the TGI (OVCAR-5 ovarian) of the same compound?
A: 3.1 µM

Q: What about the GI50 (SW-620 colon) of the same compound?
A: 1.68 µM

Q: And the TGI (SW-620 colon)?
A: 3.34 µM

Q: What about the GI50 (TK-10 renal) of the same compound?
A: 1.68 µM

Q: What about the TGI (TK-10 renal) of the same compound?
A: 3.58 µM

Q: What about the GI50 (SF-295 CNS) of the same compound?
A: 1.82 µM

Q: What about the TGI (SF-295 CNS) of the same compound?
A: 3.33 µM

Q: What about the GI50 (HCT-116 colon) of the same compound?
A: 1.72 µM

Q: And the TGI (HCT-116 colon)?
A: 3.24 µM

Q: And the GI50 (HOP-92 NSCLC)?
A: 1.3 µM

Q: And the TGI (HOP-92 NSCLC)?
A: 2.81 µM

Q: What about the GI50 (T-47D breast) of the same compound?
A: 1.78 µM

Q: And the TGI (T-47D breast)?
A: 4 µM

Q: And the GI50 (SK-MEL-28 melanoma)?
A: 1.7 µM

Q: What about the TGI (SK-MEL-28 melanoma) of the same compound?
A: 3.22 µM

Q: And the GI50 (MOLT-4 leukemia)?
A: 1.65 µM

Q: What about the TGI (MOLT-4 leukemia) of the same compound?
A: 3.62 µM

Q: And the GI50 (786-0 renal)?
A: 1.8 µM

Q: And the TGI (786-0 renal)?
A: 3.27 µM
